Source: ChEMBL document CHEMBL1201862, “PubChem BioAssay data set” (2004)
Activity calls are given as the source filed them.

Legend:
[1] = molecular target: Disintegrin and metalloproteinase domain-containing protein 17 (Homo sapiens, UniProt P78536); experiment: ADAM17 protease inhibitors, dose response, counter-screen for ADAM10 exosite inhibitor project, biochemical, quenched FRET substrate (AID 743253)
[2] = ADAM10 inhibitors, peptide cleavage, dose response, biochemical, QFRET (AID 743254);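 also: ADAM10 enzyme with the DM2 quenched FRET peptide as substrate; EDANS fluorescence gain as the protease cuts the substrate; inhibitor potency against ADAM10 proteolytic activity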
[3] = Luminescence-based cell-based high throughput dose response assay to identify activators of the DAF-12 from the parasite S. stercoralis (ssDAF-12).; format: functional
[4] = molecular target: T1, Oxysterols receptor LXR-beta (Homo sapiens, UniProt P55055); experiment: LXR agonists, Gal4 luciferase reporter, dose response, counter-screen for ssDAF-12 agonist project, cell-based, luminescence, HEK293, S. stercoralis campaign (AID 720737); format: functional; conditions: read-out: IC50 (the source's name)
T1 sequence (P55055 whole entry): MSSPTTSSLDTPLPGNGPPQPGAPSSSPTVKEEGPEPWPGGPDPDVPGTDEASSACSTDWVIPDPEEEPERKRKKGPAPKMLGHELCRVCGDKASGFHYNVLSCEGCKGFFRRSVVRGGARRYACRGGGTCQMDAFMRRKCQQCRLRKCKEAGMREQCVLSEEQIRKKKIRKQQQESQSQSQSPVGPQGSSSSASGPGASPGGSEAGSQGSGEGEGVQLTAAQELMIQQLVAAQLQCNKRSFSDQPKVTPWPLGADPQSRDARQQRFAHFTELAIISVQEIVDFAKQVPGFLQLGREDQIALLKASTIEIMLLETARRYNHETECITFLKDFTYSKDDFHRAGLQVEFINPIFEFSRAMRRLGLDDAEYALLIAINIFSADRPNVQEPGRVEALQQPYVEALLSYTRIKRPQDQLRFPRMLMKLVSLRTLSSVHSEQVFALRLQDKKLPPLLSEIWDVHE

[5] = Vero cell cytotoxicity, dose response, cytotoxicity control for Vif-APOBEC3G degradation inhibitor project, Vero cells (AID 1117358); format: functional; conditions: Human immunodeficiency virus 1, Vero
[6] = inhibitors of intracellular T. cruzi replication, confirmation, NIH3T3 host cells, beta-gal luminescence (AID 2044); format: functional, cell-based;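 also: intracellular parasites grown in NIH/3T3 mouse fibroblasts as host cells; luminescent beta-galactosidase reporter signal from transgenic T. cruzi replicating inside host cells; inhibitors lower the luminescence signal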
[7] = cytotoxicity toward NIH3T3 fibroblasts, dose response, counter-screen, cell-based, ATP luminescence, mouse fibroblasts (AID 2010); format: functional;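 also: cells exposed to compound for about 90 hours before reading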
[8] = inhibitors of clade B AD8 Env fusion, dose response, cell-based, cherry-pick (AID 652062); format: functional;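 also: luciferase signal from cell-cell fusion driven by HIV-1 clade B AD8 Env; potency is for inhibitors of fusion seen as a drop in luminescence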
[9] = inhibitors of HIV Env-driven cell fusion, dose response, cherry-pick (AID 652057); format: functional, cell-based
[10] = off-target signal loss in HeLa-CEM21 co-culture – HeLa F-luc CTL cells, cherry-picked, counter-screen for HIV-1 Env fusion inhibitor project, dose response (AID 652040); format: functional, cell-based;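 also: potency for signal decrease marking cytotoxic or nonspecific inhibition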
[11] = MC4R antagonists, dose response, counter-screen for LGR2 antagonist project, cell-based, plate reader, cherry pick (AID 743444); format: functional;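 also: transfected HEK 293 cells stimulated with alpha-MSH peptide; potency of inhibitors of the alpha-MSH evoked signal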
[12] = LGR2 antagonists, dose response, cell-based, HEK293, CRE-luciferase reporter, cherry pick, set 2 (AID 743343); format: functional;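 also: transfected cells were stimulated with diluted bursicon conditioned medium after compound addition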
Caspase-6 = molecular target: T2, Caspase-6 (Homo sapiens, UniProt P55212); experiment: human caspase-6 inhibitors, dose response, biochemical, VEID-R110 fluorescence, cherry-pick (AID 720632)
T2 sequence (P55212 whole entry): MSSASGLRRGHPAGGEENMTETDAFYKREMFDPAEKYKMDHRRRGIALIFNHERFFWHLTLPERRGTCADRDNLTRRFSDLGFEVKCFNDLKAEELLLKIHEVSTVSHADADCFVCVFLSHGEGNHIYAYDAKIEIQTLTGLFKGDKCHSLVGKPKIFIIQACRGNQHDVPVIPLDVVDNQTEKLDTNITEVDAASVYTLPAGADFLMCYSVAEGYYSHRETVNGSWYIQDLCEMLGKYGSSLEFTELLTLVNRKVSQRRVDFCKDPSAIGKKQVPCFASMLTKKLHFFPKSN

[13] = molecular target: T3, Sentrin-specific protease 8 (Homo sapiens, UniProt Q96LD8); format: functional
T3 sequence (Q96LD8 whole entry): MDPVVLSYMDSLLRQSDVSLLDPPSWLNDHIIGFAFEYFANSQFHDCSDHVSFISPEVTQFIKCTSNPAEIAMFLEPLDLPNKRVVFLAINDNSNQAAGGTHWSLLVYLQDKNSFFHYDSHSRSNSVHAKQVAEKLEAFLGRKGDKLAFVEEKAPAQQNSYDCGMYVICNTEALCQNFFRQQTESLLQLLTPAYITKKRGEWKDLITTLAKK

[14] = molecular target: T3, Sentrin-specific protease 8; format: functional; remark: listed apart in the source
[15] = Luminescence Cell-Based Dose Response to Identify Activators of Luciferase Translation or Activity in H4-C Neuroglioblastoma Cells. [Related pubchem assays: 1829 (Project Summary), 1814 (Primary HTS)]; format: functional
[16] = Luminescence Cell-Based Dose Confirmation to Identify Activators of 5'UTR Stem-Loop Driven Alpha-Synuclein mRNA Translation in H4 Neuroglioblastoma Cells. [Related pubchem assays: 1829 (Project Summary), 1814 (Primary HTS)]; format: functional
[17] = Luminescence Cell-Based Dose Response to Identify Activators of 5'UTR Stem-Loop Driven Prion Protein mRNA Translation in H4-C Neuroglioblastoma Cells. [Related pubchem assays: 1829 (Project Summary), 1814 (Primary HTS)]; format: functional
[18] = Luminescence Cell-Based Dose Confirmation HTS to Identify Activators of 5'UTR Stem-Loop Driven Alpha-Synuclein mRNA Translation in H4 Neuroglioblastoma Cells. [Related pubchem assays: 1829 (Project Summary), 1814 (Primary HTS)]; format: functional
[19] = Luminescence Cell-Based Dose Response HTS to Identify Activators of Luciferase Translation or Activity in H4 […] Cells. [Related pubchem assays: 1829 (Project Summary), 1814 (Primary HTS)]; format: functional
H4 = experiment: Luminescence Cell-Based Dose Response HTS to Identify Activators of 5'UTR Stem-Loop Driven Prion Protein mRNA Translation in H4 Neuroglioblastoma Cells. [Related pubchem assays: 1829 (Project Summary), 1814 (Primary HTS)]; format: functional; conditions: Homo sapiens
[20] = HEK293T cytotoxicity, dose response, cytotoxicity control for miR-122 modulator project, cell-based, inhibitor set, cherry-pick, set 2 (AID 720697); format: functional
[21] = molecular target: Eukaryotic translation initiation factor 4E (Mus musculus, UniProt P63073); experiment: eIF4E–eIF4G protein interaction inhibitors, dose response, biochemical, TR-FRET (AID 855); format: functional;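 also: potency for disrupting eIF4E binding to eIF4GI seen as loss of FRET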
[22] = molecular target: Induced myeloid leukemia cell differentiation protein Mcl-1 (Homo sapiens, UniProt Q07820); format: functional
Nonstructural protein 1 = Nonstructural protein 1 (Influenza A virus, UniProt Q194T2); format: functional, Influenza A virus (A/California/07/2009(H1N1))
[23] = molecular target: T4, Rac GTPase-activating protein 1 (Homo sapiens, UniProt Q9H0H5); experiment: MgcRacGAP GTPase-activating activity inhibitors, confirmation, biochemical, ADP Hunter fluorescence, primary and confirmatory (AID 624330); format: functional
T4 sequence (Q9H0H5 whole entry): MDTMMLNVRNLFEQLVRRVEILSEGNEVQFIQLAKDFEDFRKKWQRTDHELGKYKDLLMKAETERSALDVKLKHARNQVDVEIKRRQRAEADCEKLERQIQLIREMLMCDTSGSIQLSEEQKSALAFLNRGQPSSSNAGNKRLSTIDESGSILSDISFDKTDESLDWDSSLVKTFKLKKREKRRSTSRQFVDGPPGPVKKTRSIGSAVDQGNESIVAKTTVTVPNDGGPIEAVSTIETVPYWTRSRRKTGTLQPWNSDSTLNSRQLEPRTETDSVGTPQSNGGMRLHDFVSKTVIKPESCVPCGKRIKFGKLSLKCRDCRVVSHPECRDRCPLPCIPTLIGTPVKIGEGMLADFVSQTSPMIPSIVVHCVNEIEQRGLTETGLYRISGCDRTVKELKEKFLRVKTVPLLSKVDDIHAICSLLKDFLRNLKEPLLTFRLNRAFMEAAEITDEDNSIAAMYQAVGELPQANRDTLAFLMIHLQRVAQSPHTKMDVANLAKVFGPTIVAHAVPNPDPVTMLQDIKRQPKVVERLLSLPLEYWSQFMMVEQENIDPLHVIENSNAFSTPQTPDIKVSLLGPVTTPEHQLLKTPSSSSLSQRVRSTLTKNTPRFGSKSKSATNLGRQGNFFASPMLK

[24] = molecular target: T5, Histone-lysine N-methyltransferase NSD2 (Homo sapiens, UniProt O96028); format: biochemical
T5 sequence (O96028 whole entry): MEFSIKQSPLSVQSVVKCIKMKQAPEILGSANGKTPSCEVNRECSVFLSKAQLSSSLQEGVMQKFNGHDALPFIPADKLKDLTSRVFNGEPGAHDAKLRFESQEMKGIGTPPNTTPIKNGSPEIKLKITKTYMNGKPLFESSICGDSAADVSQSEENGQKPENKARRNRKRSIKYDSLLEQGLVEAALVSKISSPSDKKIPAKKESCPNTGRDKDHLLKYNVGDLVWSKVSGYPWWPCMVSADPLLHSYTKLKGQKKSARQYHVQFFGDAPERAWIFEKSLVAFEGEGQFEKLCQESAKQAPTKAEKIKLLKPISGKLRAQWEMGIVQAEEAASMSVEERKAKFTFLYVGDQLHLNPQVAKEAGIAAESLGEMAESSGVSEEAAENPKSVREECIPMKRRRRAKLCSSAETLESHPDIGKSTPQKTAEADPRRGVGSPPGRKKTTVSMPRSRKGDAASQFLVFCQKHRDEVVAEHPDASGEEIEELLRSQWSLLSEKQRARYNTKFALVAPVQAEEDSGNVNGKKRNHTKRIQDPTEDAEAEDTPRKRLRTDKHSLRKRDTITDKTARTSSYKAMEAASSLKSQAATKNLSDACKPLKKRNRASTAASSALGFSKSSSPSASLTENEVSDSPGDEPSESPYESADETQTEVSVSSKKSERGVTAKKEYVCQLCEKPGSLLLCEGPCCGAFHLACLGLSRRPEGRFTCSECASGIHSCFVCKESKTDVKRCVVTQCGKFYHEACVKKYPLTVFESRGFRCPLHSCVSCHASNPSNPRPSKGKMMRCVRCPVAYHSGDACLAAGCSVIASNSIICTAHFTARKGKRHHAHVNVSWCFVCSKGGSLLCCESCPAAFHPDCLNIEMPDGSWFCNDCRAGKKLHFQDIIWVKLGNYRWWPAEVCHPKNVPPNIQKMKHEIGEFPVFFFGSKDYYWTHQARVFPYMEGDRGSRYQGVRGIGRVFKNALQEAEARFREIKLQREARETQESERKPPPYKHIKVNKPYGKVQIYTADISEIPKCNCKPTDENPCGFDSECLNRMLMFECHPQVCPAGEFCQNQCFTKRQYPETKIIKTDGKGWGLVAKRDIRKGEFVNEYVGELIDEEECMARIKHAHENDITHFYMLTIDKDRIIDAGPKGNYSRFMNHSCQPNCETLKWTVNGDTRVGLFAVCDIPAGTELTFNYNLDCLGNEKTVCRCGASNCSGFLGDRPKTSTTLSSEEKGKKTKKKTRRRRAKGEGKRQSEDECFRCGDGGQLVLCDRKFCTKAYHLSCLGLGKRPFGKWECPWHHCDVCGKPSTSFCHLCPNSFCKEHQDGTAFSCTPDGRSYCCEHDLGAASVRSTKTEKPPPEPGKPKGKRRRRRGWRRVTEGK

Large T antigen = Large T antigen (Simian virus 40, UniProt P03070); format: functional, Betapolyomavirus macacae;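 also: Confirmatory-stage PubChem screen for compounds that inhibit SV40 T antigen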
Large T antigen, sequence (P03070 whole entry): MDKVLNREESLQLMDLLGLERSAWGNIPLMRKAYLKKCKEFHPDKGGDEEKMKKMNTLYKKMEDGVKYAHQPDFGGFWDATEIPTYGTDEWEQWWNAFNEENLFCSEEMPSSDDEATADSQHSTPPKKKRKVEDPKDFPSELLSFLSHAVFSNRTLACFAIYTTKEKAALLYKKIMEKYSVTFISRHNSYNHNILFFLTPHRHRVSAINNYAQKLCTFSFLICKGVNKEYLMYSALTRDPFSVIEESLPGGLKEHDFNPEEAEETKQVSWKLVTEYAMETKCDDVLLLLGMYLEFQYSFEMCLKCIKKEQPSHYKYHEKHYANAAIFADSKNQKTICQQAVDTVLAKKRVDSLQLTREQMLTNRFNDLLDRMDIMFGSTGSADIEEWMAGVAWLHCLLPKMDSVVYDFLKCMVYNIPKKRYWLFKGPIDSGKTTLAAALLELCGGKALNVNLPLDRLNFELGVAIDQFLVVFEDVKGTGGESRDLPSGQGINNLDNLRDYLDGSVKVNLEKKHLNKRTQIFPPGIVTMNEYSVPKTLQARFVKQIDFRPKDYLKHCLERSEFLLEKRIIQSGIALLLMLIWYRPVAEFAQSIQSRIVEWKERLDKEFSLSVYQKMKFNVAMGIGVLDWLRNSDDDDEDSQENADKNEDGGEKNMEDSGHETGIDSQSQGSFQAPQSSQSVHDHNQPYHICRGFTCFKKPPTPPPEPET

Disintegrin and metalloproteinase domain-containing protein 17, sequence (P78536 whole entry, the tested form may be a part): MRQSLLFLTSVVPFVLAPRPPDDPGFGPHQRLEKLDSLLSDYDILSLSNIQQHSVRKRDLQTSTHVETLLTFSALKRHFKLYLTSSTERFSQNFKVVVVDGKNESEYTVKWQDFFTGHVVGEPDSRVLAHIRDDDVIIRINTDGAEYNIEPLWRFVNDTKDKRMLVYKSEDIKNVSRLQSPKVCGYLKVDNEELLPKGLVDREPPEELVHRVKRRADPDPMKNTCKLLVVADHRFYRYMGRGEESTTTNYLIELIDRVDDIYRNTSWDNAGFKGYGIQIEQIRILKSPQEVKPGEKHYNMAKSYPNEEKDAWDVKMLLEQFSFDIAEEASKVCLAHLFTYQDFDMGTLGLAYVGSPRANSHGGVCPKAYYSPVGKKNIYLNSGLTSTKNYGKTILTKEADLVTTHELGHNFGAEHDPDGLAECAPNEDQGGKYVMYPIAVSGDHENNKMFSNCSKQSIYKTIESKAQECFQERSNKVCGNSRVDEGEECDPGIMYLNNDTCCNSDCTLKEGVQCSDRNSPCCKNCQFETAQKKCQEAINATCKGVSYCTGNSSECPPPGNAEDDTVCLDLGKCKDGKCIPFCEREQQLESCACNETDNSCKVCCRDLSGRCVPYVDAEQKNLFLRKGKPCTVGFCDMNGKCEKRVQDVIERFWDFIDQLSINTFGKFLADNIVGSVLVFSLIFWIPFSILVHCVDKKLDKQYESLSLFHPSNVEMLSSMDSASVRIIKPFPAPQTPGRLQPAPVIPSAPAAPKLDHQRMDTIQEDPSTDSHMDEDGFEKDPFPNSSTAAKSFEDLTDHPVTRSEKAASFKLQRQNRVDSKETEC
Eukaryotic translation initiation factor 4E, sequence (P63073 whole entry): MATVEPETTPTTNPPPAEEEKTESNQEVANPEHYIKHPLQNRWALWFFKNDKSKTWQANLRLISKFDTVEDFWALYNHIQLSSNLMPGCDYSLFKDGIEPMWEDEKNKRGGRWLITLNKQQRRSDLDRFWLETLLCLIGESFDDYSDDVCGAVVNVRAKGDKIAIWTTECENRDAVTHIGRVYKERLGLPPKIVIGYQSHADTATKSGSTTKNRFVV
Induced myeloid leukemia cell differentiation protein Mcl-1, sequence (Q07820 whole entry): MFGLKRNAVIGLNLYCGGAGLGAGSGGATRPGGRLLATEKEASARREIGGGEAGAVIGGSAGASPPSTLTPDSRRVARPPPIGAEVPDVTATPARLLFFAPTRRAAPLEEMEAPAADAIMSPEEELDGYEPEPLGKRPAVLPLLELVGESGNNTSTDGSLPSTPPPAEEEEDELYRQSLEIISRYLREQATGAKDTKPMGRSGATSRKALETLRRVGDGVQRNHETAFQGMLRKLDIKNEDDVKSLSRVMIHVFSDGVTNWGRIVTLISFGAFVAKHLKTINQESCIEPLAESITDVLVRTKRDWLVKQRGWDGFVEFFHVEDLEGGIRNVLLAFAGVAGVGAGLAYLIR
Nonstructural protein 1, sequence (Q194T2 whole entry): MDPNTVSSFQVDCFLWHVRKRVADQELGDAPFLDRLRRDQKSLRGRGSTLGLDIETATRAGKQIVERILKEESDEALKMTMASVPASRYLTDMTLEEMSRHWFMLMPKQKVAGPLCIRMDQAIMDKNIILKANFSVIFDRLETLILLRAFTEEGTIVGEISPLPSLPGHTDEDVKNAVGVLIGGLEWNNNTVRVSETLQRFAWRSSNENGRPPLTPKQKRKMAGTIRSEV

Cc1ccc(Nc2nc(N)nc(CSc3nc4ccccc4s3)n2)cc1
IC50 [1]: > 69.5 µM (inactive) | IC50 [2]: > 7.72 µM (active)

CC1CCC(NC(=O)c2ccc(S(C)(=O)=O)cc2)CC1 (centres undefined)
IC50 [3]: > 67.5 µM (inactive) | EC50 [4]: > 67.5 µM (inactive)

COc1ccc(CCNC(=O)CSc2nc(-c3ccco3)cc(C(F)(F)F)n2)cc1
CC50 [5]: > 40 µM (active)

Cc1ccc(C(=O)Nc2ccccc2-c2ccccc2)cc1S(=O)(=O)Nc1cccc(C)c1C
EC50 [6]: 1.57 µM (active) | IC50 [1]: > 69.5 µM (inactive) | EC50 [7]: > 60 µM (not active) | IC50 [2]: > 69.5 µM (inactive)

Cc1cc(C(=O)CN2C(=O)c3ccccc3S2(=O)=O)c(C)n1C(C)C
AC50 [8]: 7.58 µM (active) | AC50 [9]: 3.93 µM (active) | AC50 [10]: 3.75 µM (active) | AC50 [11]: 2.08 µM (active) | AC50 [12]: 2.48 µM (active)

CC1Cc2ccccc2N1C(=O)COC(=O)c1ccc([N+](=O)[O-])o1 (centres undefined)
AC50 (Caspase-6): 13 µM (active) | IC50 [13]: 8.67 µM (active) | IC50 [14]: 3.78 µM (active)

Cc1ccc(NC(=O)C2CC(=O)Nc3nncn32)cc1 (centres undefined)
IC50 [3]: > 67.6 µM (inactive) | EC50 [4]: > 67.6 µM (inactive)

Fc1cccc(Cl)c1Cc1noc(/C=C/c2ccccc2)n1
EC50 [15]: > 12 µM (not active) | EC50 [16]: > 12 µM (not active) | EC50 [17]: > 12 µM (not active) | EC50 [18]: < 0.1 µM (active) | EC50 [19]: 70.3 µM (active) | EC50 (H4): 4.36 µM (active)

O=C1Cc2ccccc2C(=O)N1c1ccc(F)cc1Cl
AC50 (Caspase-6): 20.4 µM (active) | IC50 [13]: 4.41 µM (active) | IC50 [14]: > 100 µM (inactive)

Nc1nonc1OCCCCOc1nonc1N
IC50 [3]: > 67.6 µM (inactive) | EC50 [4]: > 67.6 µM (inactive)

COc1ccc(S(=O)(=O)N(C)C[C@@H]2OCCCC[C@H](C)Oc3ccc(NC(=O)Nc4ccc(C(F)(F)F)cc4)cc3C(=O)N([C@H](C)CO)C[C@H]2C)cc1
IC50 [1]: > 69.5 µM (inactive) | IC50 [2]: > 69.5 µM (inactive)

CCCNC(=O)Nc1ccc2c(c1)C(=O)N(C)[C@@H]1CC[C@H](CC(=O)O)O[C@H]1CO2
AC50 [20]: 1.82 µM (active)

CN(C)c1ccc(/N=c2/sc3ccccc3n2C)cc1
IC50 [21]: > 64 µM (inactive) | IC50 [22]: 40.2 µM (active) | IC50 (Nonstructural protein 1): 23.9 µM (active) | IC50 [23]: 18.9 µM (active) | AC50 [24]: 10.4 µM (active) | IC50 (Large T antigen): 11.4 µM (active)
